Columns and labels:
[1] = test system: E. faecium; assay: DiBAC4 membrane depolarization on E. faecium; type: cell-based, Enterococcus faecium; details: deoxycholate as positive control
[2] = test system: A. baumannii; assay: DiBAC4 membrane depolarization on A. baumannii; type: cell-based, Acinetobacter baumannii; details: polymyxin as positive control
[3] = test system: bacterial membrane; details: bacterium not stated; ref [6b],[13],[15]; cited from earlier work

Compound: C[C@H](CCC(=O)O)[C@H]1CC[C@H]2[C@@H]3CC[C@@H]4C[C@H](O)CC[C@]4(C)[C@H]3C[C@H](O)[C@]12C [sodium deoxycholate]
- Membrane depolarization (DiBAC4 fluorescence change) [1]: rapidly enhanced DiBAC4 fluorescence

Compound: polymyxin
- Membrane depolarization (DiBAC4 fluorescence change) [2]: rapidly enhanced DiBAC4 fluorescence

Compound: tridecaptin
- Membrane depolarization in DiBAC4 assay [3]: does not depolarize the membrane

Source: publication PMC7163397 (Journal of the American Chemical Society, 2017)
